# Laboratory results as given in US20160129034A1, “COMBINATION OF RO5503781, CAPECITABINE AND OXALIPLANTIN FOR CANCER THERAPY” (HOFFMANN-LA ROCHE INC., priority 2013, published 2016).
# Tested on: LoVo cell line
# Assay: LoVo colorectal xenograft in mice: tumor growth inhibition and survival
# Format: in vivo
# Details: for % Inhibition (EOS) / % T/C (EOS): end of study; for Mean Tumor Volume: in mm³ (unit assumed)
# Method: The LoVo cell line was selected for implantation in mice as it is has activation of the p53-MDM2 pathway but lacks MDM2 amplification or overexpression, which therefore is felt to be more reflective of clinical reality of the colorectal cancer patient population of interest.
# Compound A and the capecitabine/oxaliplatin formulations were as follows. If not explicitly indicated otherwise, the amounts provided below are concentrations [mg/ml]. Compound A is used at concentrations of 10 mg/ml and 12.5 mg/ml. Capecitabine is used at concentrations of 12.5 mg/ml, 25 mg/ml and 50 mg/ml. Oxaliplatin is dosed at 5 mg/kg. The vehicle solutions for compound A and capecitabine are as follows:
# The following treatment groups were used in the study • 1. Vehicle Control qd×5 po+qd×14 po • 2. Compound A 80 mg/kg qd×5 po • 3. Compound A 100 mg/kg qweekly×3 po • 4. Capecitabine 200 mg/kg qd×14 po • 5. Oxaliplatin 5 mg/kg qweekly ip×2 • 6. Capecitabine 200 mg/kg qd×14po+Oxaliplatin 5 mg/kg qweekly ip×2 • 7. Compound A 80 mg/kg qd×5+Capecitabine 200 mg/kg qd×14 • 8. Compound A 100 mg/kg qweekly×3+Capecitabine 200 mg/kg qd×14 • 9. Compound A 80 mg/kg qd×5+Capecitabine 200 mg/kg qd×14+Oxaliplatin 5 mg/kg qweekly ip×2 • 10. Compound A 100 mg/kg qweekly×3+Capecitabine 200 mg/kg qd×14+Oxaliplatin 5 mg/kg qweekly ip×2
# [1] = Capecitabine 200 mg/kg qdx14 po
# [2] = Oxaliplatin 5 mg/kg qweeklyx2 ip
smiles,measurement,setting,value
"CCCCCOC(=O)Nc1nc(=O)n([C@@H]2O[C@H](C)[C@@H](O)[C@H]2O)cc1F [Capecitabine, 5′-deoxy-5-fluoro-N-[(pentyloxy)-carbonyl]-cytidine]",% Increased Life Span,[1],36%
same,% Inhibition (EOS),[1],75%
same,% T/C (EOS),[1],25%
same,Mean Tumor Volume,[1],129.07
"COc1cc(C(=O)O)ccc1NC(=O)[C@@H]1N[C@@H](CC(C)(C)C)[C@](C#N)(c2ccc(Cl)cc2F)[C@H]1c1cccc(Cl)c1F [Cpd. A, 4-{[(2R,3S,4R,5S)-4-(4-Chloro-2-fluoro-phenyl)-3-(3-chloro-2-fluoro-phenyl)-4-cyano-5-(2,2-dimethyl-propyl)-pyrrolidine-2-carbonyl]-amino}-3-methoxy-benzoic acid]",% Increased Life Span,Cpd A 80 mg/kg qdx5 po,21%
same,% Inhibition (EOS),Cpd A 80 mg/kg qdx5 po,64%
same,% T/C (EOS),Cpd A 80 mg/kg qdx5 po,38%
same,Mean Tumor Volume,Cpd A 80 mg/kg qdx5 po,130.73
same,% Increased Life Span,Cpd A 100 mg/kg qwklyx3 po,21%
same,% Inhibition (EOS),Cpd A 100 mg/kg qwklyx3 po,60%
same,% T/C (EOS),Cpd A 100 mg/kg qwklyx3 po,40%
same,Mean Tumor Volume,Cpd A 100 mg/kg qwklyx3 po,130.23
O=C(O)C(=O)O.[NH-][C@@H]1CCCC[C@H]1[NH-].[Pt+2] [Oxaliplatin],% Increased Life Span,[2],0%
same,% Inhibition (EOS),[2],23%
same,% T/C (EOS),[2],77%
same,Mean Tumor Volume,[2],130.60
